# Measurements taken from patent US10633383B2, “Compounds for the treatment, alleviation or prevention of disorders associated with Tau aggregates” (AC Immune SA, priority 2018, dated 2020).
# Tested on: human neuroblastoma cell line overexpressing the full-length form of human Tau carrying the P301L mutation
# Experiment: Reduction of intracellular Tau aggregation (AlphaLISA)
# Type: cell-based
# Conditions: compound at 5 μM, 24 h, aggregated Tau normalized to total Tau, relative to DMSO-treated cells
# Protocol: Reduction of Intracellular Tau Aggregation
# A human neuroblastoma cell line overexpressing the full-length form of human Tau carrying the P301L mutation was cultured in complete medium [DMEM-F12 4.5 g/L Glutamax (Invitrogen), 15% FBS (Biochrom), 1% Peni/Strep (Invitrogen) supplemented with 2.5 μg/ml of G418 (Sigma-Aldrich) selection antibiotic]. The day before the experiment 5×10^5 cells/well were plated in a 6 well plate in 3 mL of complete medium. The next day, cells were incubated with DMSO or a compound of the present invention at a 5 μM for additional 24 h at 37° C. After incubation, cells were trypsinized, resuspended in 100 μl of homogenization buffer [25 mM Tris-HCl pH 7.4, 150 mM NaCl, 1 mM EDTA, 1 mM EGTA containing phosphatase inhibitors (30 mM NaF, 0.2 mM Na3VO4, 1 nM Okadaic acid, 1 mM PMSF, 5 mM Na4P2O7) and protease inhibitor cocktail (Complete™, Roche)], and then physically lysed with three rapid cycles of freezing and thawing. Samples were then directly tested in the AlphaLISA assay. Phosphorylated, aggregated, and total Tau were quantified by AlphaLisa using the following antibody pairs: • HT7-Acceptor beads+biotin (BT)-Tau13-Donor beads: Total Tau • HT7-Acceptor beads+biotin (BT)-HT7-Donor beads: Aggregated human Tau
# The Tau13 (Abcam) was biotinylated using EZ-Link® NHS-PEO Solid Phase biotinylation kit (Thermo Scientific), while the HT7-biotin was from a commercial source (Thermo Scientific).
# For each antibody pairs the concentration of acceptor beads and biotinylated antibodies was optimized. All samples were first tested in a dilution series in PBS in order to identify the linear range and optimal dilution for each sample and assay. For the final protocol, the following reagents were added in a 384-well white OptiPlate (PerkinElmer): • 5 μL of test diluted sample • 20 μL of the mixture biotin-mAb acceptor beads at the following final concentrations: • HT7-BT at 1.25 nM in combination with HT7-Acc beads at 10 μg/ml • Tau13-BT at 5 nM in combination with HT7-Acc beads at 2.5 μg/ml
# After incubation of this mixture at room temperature for 1 h, 25 μL of Streptavidin Donor beads (Perkin Elmer) at 25 μg/mL were added in the dark. Plates were analyzed after 30 min incubation using the EnSpire Alpha instrument and EnSpire Workstation version 3.00. Data for aggregated Tau were normalized to total Tau and then expressed as percentage of the DMSO-treated cells.
row,SMILES,inhibition at 5 µM
1,Fc1ccc2c3c([nH]c2c1)CCN(c1ccn2nc(N4CCOCC4)nc2c1)C3 [Example 70],25 to 50%
2,Fc1cccc2[nH]c3c(c12)CN(c1ccc2sc(N4CCOCC4)nc2c1)CC3 [Example 52],10 to 25%
3,COc1ccc2[nH]c3c(c2c1)CN(c1ccc2nc(N4CCOCC4)sc2c1)CC3 [Example 19],25 to 50%
4,CN(C)c1nc2cc(N3CCc4[nH]c5cc(F)ccc5c4C3)ccc2s1 [Example 69],> 50%
5,CN(C)c1nc2ccc(N3CCc4[nH]c5cc(F)ccc5c4C3)cc2o1 [Example 55],10 to 25%
6,Fc1ccc2[nH]c3c(c2c1)CN(c1ccc2nc(N4CCOCC4)sc2c1)CC3 [Example 6],25 to 50%

# Biological target: T1, recombinant full-length (fl)Tau (human Tau 2N4R) aggregates (Homo sapiens, UniProt P10636)
# T1 construct: 35 μM of recombinant full-length (fl)Tau in PBS were aggregated; made in house; host or cells: bacteria
# Experiment: Full-length Tau (flTau) disaggregation assay by Thioflavin T (ThT)
# Type: biochemical
# Conditions: 2 μM flTau aggregates, 30 minutes at RT, ThT fluorescence
# Protocol: Full-Length Tau (flTau) Disaggregation Assay by Thioflavin T (ThT)
# (§1) The longest isoform of human Tau (2N4R; 441 amino acids) was expressed in bacteria and purified. For the Tau disaggregation assay by ThT, 35 μM of recombinant full-length (fl)Tau in PBS were aggregated for 24 hours at 37° C. in presence of 50 μM of heparin (Sigma-Aldrich) and 10 mM of DTT (Sigma-Aldrich) under shaking at 750 RPM. Compounds were dissolved in anhydrous dimethyl sulfoxide (DMSO, Sigma-Aldrich) to reach a concentration of 10 mM. flTau aggregates and serial dilutions of compounds were mixed together in PBS (volume 50 μL) to a final concentration of 2 μM of flTau aggregates and from 160 to 0.04 μM of compounds. The mixture was incubated for 30 minutes at room temperature (RT), then 40 μL of this mixture were transferred into a black 384-well plate assay (Perkin-Elmer) and mixed with 10 μL of 100 μM ThT in 250 mM glycine (both from Sigma-Aldrich) in PBS. Fluorescence (relative fluorescence units; RFU) was measured in monoplicate or duplicate on a Tecan reader (excitation: 440 nm; emission: 485 nm). Percentage of flTau disaggregation was then calculated and the half maximal effective concentration (EC50) was determined using GraphPad Prism version 5 (GraphPad Software) assuming a one-binding site fitting model.
# T1 sequence (P10636 1-441 isoform P10636-8): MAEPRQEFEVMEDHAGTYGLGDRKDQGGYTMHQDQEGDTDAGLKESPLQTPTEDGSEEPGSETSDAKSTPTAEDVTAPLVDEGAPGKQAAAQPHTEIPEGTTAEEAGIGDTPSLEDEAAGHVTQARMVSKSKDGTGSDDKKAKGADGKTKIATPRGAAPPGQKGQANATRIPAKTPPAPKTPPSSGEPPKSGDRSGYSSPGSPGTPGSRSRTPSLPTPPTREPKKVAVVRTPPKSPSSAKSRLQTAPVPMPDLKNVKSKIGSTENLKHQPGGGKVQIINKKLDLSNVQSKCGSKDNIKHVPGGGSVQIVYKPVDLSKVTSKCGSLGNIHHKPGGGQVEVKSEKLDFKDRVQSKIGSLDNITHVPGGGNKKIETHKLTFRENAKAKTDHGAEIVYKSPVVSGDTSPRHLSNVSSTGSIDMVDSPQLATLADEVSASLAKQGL
row,SMILES,EC50
1,COc1ccc2[nH]c3c(c2c1)CN(c1ccc2oc(N4CCOCC4)nc2c1)CC3 [Example 24],25 to 50 µM
2,CN(C)c1nc2cc(N3CCc4[nH]c5cc(F)ccc5c4C3)ccc2o1 [Example 56],< 10 µM
3,COc1ccc2[nH]c3c(c2c1)CN(c1ccc2nc(N(C)C)oc2c1)CC3 [Example 40],10 to 25 µM
4,CN(C)c1nc2ccc(N3CCc4[nH]c5cc(F)ccc5c4C3)cc2s1 [Example 54],< 10 µM
5,Fc1ccc2[nH]c3c(c2c1)CN(c1ccc(N2CCOCC2)nc1)CC3 [Example 74],25 to 50 µM
6,COc1ccc2c(c1)c1c(n2C)CCN(c2ccc3sc(N(C)C)nc3c2)C1 [Example 32],25 to 50 µM
7,Cn1c2c(c3cc(F)cnc31)CN(c1ccc3nc(N4CCOCC4)sc3c1)CC2 [Example 17],< 10 µM
8,Cn1c2c(c3cc(F)ccc31)CN(c1ccc(N3CCOCC3)nc1)CC2 [Example 75],10 to 25 µM
9,CN(C)c1nc2ccc(N3CCc4[nH]c5ccc(F)cc5c4C3)cc2o1 [Example 13],10 to 25 µM
10,COc1ccc2c(c1)c1c(n2C)CCN(c2ccc3oc(N4CCOCC4)nc3c2)C1 [Example 21],10 to 25 µM
11,Fc1cccc2[nH]c3c(c12)CN(c1ccc2sc(N4CCOCC4)nc2c1)CC3 [Example 52],< 10 µM
12,Fc1ccc2c3c([nH]c2c1)CCN(c1ccc2nc(N4CCOCC4)oc2c1)C3 [Example 44],10 to 25 µM
13,COc1ccc2[nH]c3c(c2c1)CN(c1ccc2nc(N4CCOCC4)sc2c1)CC3 [Example 19],< 10 µM
14,Fc1ccc2[nH]c3c(c2c1)CN(c1ccc2sc(N4CCOCC4)nc2c1)CC3 [Example 9],< 10 µM
15,COc1ccc2[nH]c3c(c2c1)CN(c1ccc2nc(N4CCOCC4)oc2c1)CC3 [Example 18],10 to 25 µM
16,COc1ccc2[nH]c3c(c2c1)CN(c1ccc2sc(N(C)C)nc2c1)CC3 [Example 30],< 10 µM
17,CC(C)Nc1nc2cc(N3CCc4c(c5cc(F)ccc5n4C)C3)ccc2s1 [Example 25],< 10 µM
18,Cn1c2c(c3cc(F)cnc31)CN(c1ccc3nc(N4CCOCC4)oc3c1)CC2 [Example 39],25 to 50 µM
19,Fc1ccc2oc3c(c2c1)CN(c1ccc2oc(N4CCOCC4)nc2c1)CC3 [Example 49],< 10 µM

row,SMILES,EC50
1,COc1ccc2c(c1)c1c(n2C)CCN(c2ccc3nc(N(C)C)oc3c2)C1 [Example 33],< 10 µM
2,CN(C)c1nc2ccc(N3CCc4c(c5cc(F)cnc5n4C)C3)cc2s1 [Example 34],< 10 µM
3,CN(C)c1nc2cc(N3CCc4[nH]c5cc(F)ccc5c4C3)ccc2s1 [Example 69],< 10 µM
4,CN(C)c1nc2ccc(N3CCc4c(c5ccc(F)cc5n4C)C3)cc2s1 [Example 67],< 10 µM
5,Cn1c2c(c3cc(F)ccc31)CN(c1ccc3sc(N4CCOCC4)nc3c1)CC2 [Example 22],25 to 50 µM
6,CN(C)c1nc2ccc(N3CCc4[nH]c5cc(F)ccc5c4C3)cc2o1 [Example 55],< 10 µM
7,CN(C)c1nc2cc(N3CCc4c(c5ccc(F)cc5n4C)C3)ccc2o1 [Example 42],10 to 25 µM
8,COc1ccc2[nH]c3c(c2c1)CN(c1ccc2sc(N4CCOCC4)nc2c1)CC3 [Example 23],25 to 50 µM
9,Fc1ccc2c3c([nH]c2c1)CCN(c1ccc2sc(N4CCOCC4)nc2c1)C3 [Example 63],< 10 µM
10,Fc1ccc2c3c([nH]c2c1)CCN(c1ccc2nc(N4CCOCC4)sc2c1)C3 [Example 43],< 10 µM
11,COc1ccc2c(c1)c1c(n2C)CCN(c2ccc3nc(N(C)C)sc3c2)C1 [Example 31],< 10 µM
12,Cn1c2c(c3cc(F)cnc31)CN(c1ccc3oc(N4CCOCC4)nc3c1)CC2 [Example 36],< 10 µM
13,Cn1c2c(c3ccc(F)cc31)CN(c1ccc3nc(N4CCOCC4)oc3c1)CC2 [Example 62],< 10 µM
14,CN(C)c1nc2cc(N3CCc4c(c5cc(F)ccc5n4C)C3)ccc2o1 [Example 29],< 10 µM
15,Cn1c2c(c3ccc(F)cc31)CN(c1ccc3sc(N4CCOCC4)nc3c1)CC2 [Example 61],< 10 µM
16,CN(C)c1nc2cc(N3CCc4c(c5cc(F)ccc5n4C)C3)ccc2s1 [Example 28],< 10 µM
17,COc1ccc2c(c1)c1c(n2C)CCN(c2ccc3nc(N4CCOCC4)sc3c2)C1 [Example 16],< 10 µM
18,Cn1c2c(c3ccc(F)cc31)CN(c1ccc3oc(N4CCOCC4)nc3c1)CC2 [Example 65],< 10 µM
19,CN(C)c1nc2ccc(N3CCc4c(c5cc(F)ccc5n4C)C3)cc2s1 [Example 3],10 to 25 µM

# Biological target: T2, Tau K18 fragment (amino acids 244 to 372 of human Tau441) aggregates (Homo sapiens, UniProt P10636)
# T2 construct: encompassing amino acids 244 to 372 of the longest isoform (2N4R) of human Tau441; host or cells: bacteria
# Experiment: Tau K18 disaggregation assay by ThT
# Type: biochemical
# Conditions: 2 μM K18 aggregates, 30 minutes at RT, ThT fluorescence
# Protocol: Tau K18 Disaggregation Assay by ThT
# as §1, with “Compounds” for “The longest isoform of human Tau (2N4R; 441 amino acids) was expressed in bacteria and purified. For the Tau disaggregation assay by ThT, 35 μM of recombinant full-length (fl)Tau in PBS were aggregated for 24 hours at 37° C. in presence of 50 μM of heparin (Sigma-Aldrich) and 10 mM of DTT (Sigma-Aldrich) under shaking at 750 RPM. Compounds”, “K18” for “flTau”, “and” for “and the”
# T2 sequence (P10636 561-689): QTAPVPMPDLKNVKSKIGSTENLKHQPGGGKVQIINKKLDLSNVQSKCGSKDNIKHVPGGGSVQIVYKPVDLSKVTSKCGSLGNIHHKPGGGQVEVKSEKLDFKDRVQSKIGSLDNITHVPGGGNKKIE
row,SMILES,EC50
1,COc1ccc2[nH]c3c(c2c1)CN(c1ccc2oc(N4CCOCC4)nc2c1)CC3 [Example 24],< 10 µM
2,Fc1ccc2c3c([nH]c2c1)CCN(c1ccn2nc(N4CCOCC4)nc2c1)C3 [Example 70],< 10 µM
3,CN(C)c1nc2ccc(N3CCc4[nH]c5ccc(F)cc5c4C3)cc2o1 [Example 13],< 10 µM
4,Fc1ccc2[nH]c3c(c2c1)CN(c1ccc2sc(N4CCOCC4)nc2c1)CC3 [Example 9],< 10 µM
5,Fc1cccc2[nH]c3c(c12)CN(c1ccc2oc(N4CCOCC4)nc2c1)CC3 [Example 53],< 10 µM
6,Fc1ccc2[nH]c3c(c2c1)CN(c1cnc2nc(N4CCOCC4)ccc2c1)CC3 [Example 112],< 10 µM
7,"CCn1c2c(c3ccc(F)cc31)CN(c1ccc3oc(N4CCOCC4)nc3c1)CC2 [Example 146, 5-(5-ethyl-7-fluoro-3,4-dihydro-1H-pyrido[4,3-b]indol-2-yl)-2-morpholino-1,3-benzoxazole]",< 10 µM
8,Cc1ccc(N2CCc3c(c4cc(F)ccc4n3C)C2)cc1O [Example 147],< 10 µM
9,Cn1c2c(c3cccc(F)c31)CN(c1ccc3oc(N4CCOCC4)nc3c1)CC2 [Example 120],< 10 µM
10,CN(C)c1nc2ccc(N3CCc4[nH]c5ccc(F)cc5c4C3)cc2s1 [Example 7],< 10 µM
11,COc1ccnc(N2CCc3[nH]c4cc(F)ccc4c3C2)c1 [Example 140],< 10 µM
12,Fc1ccc2[nH]c3c(c2c1)CN(c1ccc2nc(N4CCOCC4)sc2c1)CC3 [Example 6],< 10 µM
13,c1ccc2c3c([nH]c2c1)CCN(c1ccc(N2CCOCC2)nc1)C3 [Example 86],10 to 25 µM
14,CN(C)c1nc2cc(N3CCc4[nH]c5ccc(F)cc5c4C3)ccc2o1 [Example 10],< 10 µM
15,Fc1ccc2[nH]c3c(c2c1)CN(c1ccc(N2CCOCC2)cc1)CC3 [Example 115],< 10 µM
16,Fc1cccc2[nH]c3c(c12)CN(c1ccc(N2CCOCC2)cn1)CC3 [Example 82],10 to 25 µM
17,CN(C)c1nc2ccc(N3CCc4c(c5cc(F)ccc5n4C)C3)cc2s1 [Example 3],< 10 µM
18,c1cnc2oc3c(c2c1)CN(c1ccc2oc(N4CCOCC4)nc2c1)CC3 [Example 96b],< 10 µM
